The values that follow come from article PMC12064818, “A general assay platform to study protein pharmacology using ligand-dependent structural dynamics” (Nature Communications, 2025).

Structures are written as SMILES. Some results are limits rather than exact numbers.

T1 sequence (P08659 whole entry, looked up): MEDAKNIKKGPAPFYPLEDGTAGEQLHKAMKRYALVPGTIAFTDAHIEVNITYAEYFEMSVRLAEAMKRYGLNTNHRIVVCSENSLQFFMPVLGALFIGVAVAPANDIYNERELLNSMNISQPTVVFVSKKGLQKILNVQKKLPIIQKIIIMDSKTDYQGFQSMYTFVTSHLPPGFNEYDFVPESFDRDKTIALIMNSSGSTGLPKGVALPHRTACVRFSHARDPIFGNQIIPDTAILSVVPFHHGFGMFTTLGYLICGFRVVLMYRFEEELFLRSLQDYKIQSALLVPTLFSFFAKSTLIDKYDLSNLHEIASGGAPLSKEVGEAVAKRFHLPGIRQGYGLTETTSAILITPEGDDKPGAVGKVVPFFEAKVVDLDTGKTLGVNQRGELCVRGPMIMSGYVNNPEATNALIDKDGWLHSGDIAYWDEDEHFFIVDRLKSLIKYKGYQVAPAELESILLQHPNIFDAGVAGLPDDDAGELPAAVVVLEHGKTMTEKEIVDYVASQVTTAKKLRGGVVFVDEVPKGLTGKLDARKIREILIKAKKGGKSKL

The experiment addresses T1, FLuc-C-HiBiT (Photinus pyralis, UniProt P08659).
T1 construct: firefly luciferase with C-terminal HiBiT tag, E. coli expressed
Kind of experiment: biochemical. The note with it: enzyme activity, 10 uM ATP; read-out: IC50 or SDR50 (mM) / FLuc E.
Turning to `COCCN1CCOc2nc(-c3cc(F)cc(OC)c3)ncc2C1=O` [NCGC00413569-01], the IC50 is 11.4 µM.

Consider `COc1ccc(-c2nc3ccccc3s2)cc1NC(=O)c1ccccc1OC` [NCGC00102097-01], for which the IC50 came out at 11.1 µM.

As for `Cc1ccc(Cc2cn3cc(-c4ccccc4)nc3s2)cc1` [NCGC00102098-01], the IC50 was determined as 0.442 µM.

Consider `CC(=O)N1CCc2ccc(C(=O)NC3CCCCCC3)cc21` [NCGC00430256-01], for which the IC50 worked out at 6.24 µM.

On to `Cc1c(N[S+](C)(=O)[O-])cccc1-c1nc2ccccc2s1` [NCGC00118990-01], for which the IC50 is 9.89 µM.

On to `Cc1ccc(NC(=O)/C=C/c2ccccc2Cl)cc1Cl` [NCGC00098283-01], for which the IC50 came to 3.51 µM.

On to `Cc1ccc(-c2ncc(NC(=O)c3ccccc3F)cn2)cc1` [NCGC00432887-01], for which the IC50 came to 1.97 µM.

For the compound `Cc1cc(NC(=O)c2ccc(CN3CC[C@H](O)C3)cc2)ccc1F` [NCGC00432832-01], the IC50 was found to be 1.97 µM.

Regarding `COc1ccc(CNC(=O)c2ccc3c(c2)N=C(C)c2c(C)ccc(C)c2S3)cc1` [NCGC00112026-02], the IC50 is greater than 30 µM.

`NC(=O)COC(=O)c1ccccc1-c1nc2ccccc2s1` [NCGC00641952-01]: the IC50 is greater than 30 µM.

`CC(C)Cc1noc(-c2ccc(N3CCC(O)CC3)nc2)n1` [NCGC00434953-01]: the IC50 worked out at 5.56 µM.

As to `Clc1ccc(-n2ncc3c(NC4CCCC4)ncnc32)cc1` [NCGC00139250-01], the IC50 was determined as 1.24 µM.

Take `O=C(Nc1ccc(O)c(-c2nc3ccccc3s2)c1)c1cc2ccccc2o1` [NCGC00595541-01]: the IC50 was greater than 30 µM.

Take `COc1ccc(-c2cc(N3CCCC(NC(=O)c4c[nH]c5ccccc45)C3)[nH]n2)cc1` (stereo not shown) [NCGC00437686-01]: the IC50 was found to be 11.1 µM.

Regarding `CCOCC1(C)COc2ccc(C(=O)Nc3ccccc3)cc2N1` (stereo not shown) [NCGC00416079-01], the IC50 is 18 µM.

As to `Fc1ccc(Cc2cn3cc(-c4ccc(Cl)cc4)nc3s2)cc1` [NCGC00102108-01], the IC50 stood at 3.51 µM.

`COc1cc(C(=O)Nc2cc(C)c(O)c(-c3nc4ccccc4s3)c2)cc(OC)c1OC` [NCGC00103336-02]: the IC50 is greater than 30 µM.

For the compound `CC(C)c1noc(-c2nc(-c3ccc4c(c3)OCO4)no2)n1` [NCGC00450061-01], the IC50 turned out to be 7.85 µM.

For `CCc1ccc(-c2nc(CSCC(=O)NCc3ccc(C)cc3)c(C)o2)cc1` [NCGC00109429-01], the IC50 amounted to 14 µM.

For `O=C(Nc1ccccc1)c1nc2c(o1)CCN(Cc1ccccc1)CC2` [NCGC00413286-01], the IC50 was found to be 4.53 µM.

On to `O=c1[nH]cnc2c1ncn2[C@H]1CC[C@@H](CO)O1` [NCGC00090691-03], for which the IC50 is greater than 30 µM.

As for `c1ccc(Nc2cc3c(cn2)CN(Cc2cc[nH]n2)CCN3)cc1` [NCGC00411115-01], the IC50 was found to be 16.1 µM.

With `O=C(O)c1ccc(-c2noc(-c3ccc(C(F)(F)F)cc3)n2)cc1` [NCGC00168758-01], the IC50 was 0.313 µM.

As to `COc1ccc(-c2nc3ccccc3s2)cc1NC(=O)c1ccc(C#N)cc1F` [NCGC00103038-01], the IC50 is greater than 30 µM.

`CCCCOc1nc(N)c2[nH]c(=O)n(CCCN(CCCN3CCOCC3)Cc3cccc(CC(=O)OC)c3)c2n1` [NCGC00886690-01]: the IC50 is greater than 30 µM.

`CCc1ccc(CNC(=O)C2CCCN(c3nn4cc(-c5ccc(F)cc5)nc4s3)C2)cc1` (stereo not shown) [NCGC00123722-01]: the IC50 was greater than 30 µM.

`Cc1cc(-c2cc3c(cn2)CN(Cc2ccccn2)CCN3)ccn1` [NCGC00411150-01]: the IC50 stood at 20.2 µM.

As to `Cc1cc(NC(=O)c2ccccc2F)ccc1-c1nc2ccccc2s1` [NCGC00137834-01], the IC50 stood at 2.48 µM.

For the compound `Cc1ccc(-n2ncc3c(N4CCCC(C)C4)ncnc32)cc1C` (stereo not shown) [NCGC00523591-01], the IC50 was found to be 0.157 µM.

With `C[C@H](C(=O)NCCN1CCOCC1)C1CC[C@@]2(C)Cc3sc(CSc4ccccc4)nc3[C@@H](C)[C@@H]2[C@H]1O` (stereo partly shown) [NCGC00398276-01], the IC50 was 12.4 µM.

For the compound `O=C(O)c1cccc(-c2noc(-c3ccccc3F)n2)c1` [NCGC00168759-10], the IC50 amounted to 0.00624 µM.
